Experimental findings from ChEMBL document CHEMBL1132705, “Synthesis and biological activities of spiroheterocyclic growth hormone secretagogues” (Bioorg Med Chem Lett, 1999) are described below.

The species named for one test is Canis familiaris. Kind of test: Minimum effective dose required for oral activity in beagles that caused at least five fold elevation of growth hormone (GH) over basal levels. It is filed as functional. The following applies: Canis lupus familiaris, read-out: MED.
With `CC(C)(N)C(=O)N[C@H](CCCc1ccccc1)C(=O)N1CCC2(CCc3ccccc32)CC1.Cl`, the minimal effective dose was 5 mg/kg.
On the same count and under the same terms, in the case of `CC(C)(N)C(=O)N[C@H](CCC1CCCCC1)C(=O)N1CCC2(CC1)CS(=O)(=O)c1ccccc12.Cl` it was 0.25 mg/kg.
As to `CC(C)(N)C(=O)N[C@H](CCCc1ccccc1)C(=O)N1CCC2(CC1)C[S+]([O-])c1ccccc12.Cl` (stereo partly specified), the minimal effective dose amounted to 0.25 mg/kg.
With `CC(C)(N)C(=O)N[C@H](CCCc1ccccc1)C(=O)N1CCC2(CC1)CS(=O)(=O)c1ccccc12.Cl`, the minimal effective dose turned out to be 0.125 mg/kg.

The species entered for another test is Rattus norvegicus. The test can be described thus: Stimulation of growth hormone (GH) release determined in vitro by rat pituitary cell assay. It is filed as functional. The following applies: Pituitary gland cell.
The compound `CC(C)(N)C(=O)N[C@H](CCc1ccccc1)C(=O)N1CCC2(CCc3ccccc32)CC1` showed an EC50 of 22 nM.
For the compound `CC(C)(N)C(=O)N[C@H](CCc1ccccc1)C(=O)N1CCC2(CC1)CSc1ccccc12`, the response was half-maximal at 57 nM (EC50).
Still for that read-out and setting: as for `CC(C)(N)C(=O)N[C@H](CCC1CCCCC1)C(=O)N1CCC2(CCc3ccccc32)CC1`, the figure is 21 nM; as for `CC(C)(N)C(=O)N[C@H](COCc1ccccc1)C(=O)N1CCC2(CC1)COc1ccccc12`, 8.5 nM; as for `CC(C)(N)C(=O)N[C@H](CCCc1ccccc1)C(=O)N1CCC2(CC1)CSc1ccccc12`, 4.8 nM.
In the case of `CC(C)(N)C(=O)N[C@H](Cc1c[nH]c2ccccc12)C(=O)N1CCC2(CC1)CSc1ccccc12`, the midpoint of the response, the EC50, lay at 5.6 nM.
On the same count and under the same terms, as for `CC(C)(N)C(=O)N[C@H](CCc1ccccc1)C(=O)N1CCC2(CC1)CS(=O)(=O)c1ccccc12`, the figure is 6 nM.
As for `CC(C)(N)C(=O)N[C@H](CCC1CCCCC1)C(=O)N1CCC2(CC1)CS(=O)(=O)c1ccccc12.Cl`, the EC50 stood at 1.4 nM.
The compound `CC(C)(N)C(=O)N[C@H](CCCc1ccccc1)C(=O)N1CCC2(CC1)COc1ccccc12` returned an EC50 of 2.7 nM.
`CC(C)(N)C(=O)N[C@H](CCCc1ccccc1)C(=O)N1CCC2(CC1)C[S+]([O-])c1ccccc12.Cl` (stereo partly specified) registered an EC50 of 2 nM.
The same measure, in the same setting: in the case of `CC(C)(N)C(=O)N[C@H](CCC1CCCCC1)C(=O)N1CCC2(CC1)C[S+]([O-])c1ccccc12` (stereo partly specified) it was 3.4 nM.
Consider `CC(C)(N)C(=O)N[C@H](COCc1ccccc1)C(=O)N1CCC2(CC1)CSc1ccccc12`, for which the EC50 was 10 nM.
For `CC(C)(N)C(=O)N[C@H](COCc1ccccc1)C(=O)N1CCC2(CC1)CS(=O)(=O)c1ccccc12`, the 50% effective concentration (EC50) turned out to be 5 nM.
On to `CC(C)(N)C(=O)N[C@H](Cc1c[nH]c2ccccc12)C(=O)N1CCC2(CC1)CS(=O)(=O)c1ccccc12`, for which the response was half-maximal at 2.1 nM (EC50).
Same read-out and setting: in the case of `CC(C)(N)C(=O)N[C@H](CCCc1ccccc1)C(=O)N1CCC2(CC1)CS(=O)(=O)c1ccccc12.Cl` it was 1.1 nM; in that of `CC(C)(N)C(=O)N[C@H](COCc1ccccc1)C(=O)N1CCC2(CC1)C[S+]([O-])c1ccccc12` (stereo partly specified), 8.5 nM; in that of `CC(C)(N)C(=O)N[C@H](CCC1CCCCC1)C(=O)N1CCC2(CC1)CSc1ccccc12`, 8.1 nM.

What is called EC50 is the concentration giving half of the maximal effect. Lower therefore signals greater potency.
